How the values were obtained:
[1] = H33342 accumulation assay; format: cell-based, Pseudomonas aeruginosa ATCC 27835; conditions: P. aeruginosa; 25 μM
[2] = tested on: P. aeruginosa ATCC 27853; test: MIC assay (microbroth dilution) ± 25 μM EPI; format: cell-based, Pseudomonas aeruginosa
Text: • Strains and Reagents. The following strains were obtained from the Keio collection (Baba, et al.: Construction of Escherichia coli K-12 in-frame, single-gene knockout mutants: the Keio collection. In Mol Syst Biol, vol. 2, pp. 2006 0008, (2006)): JW0451 (ΔacrB::kan), JW5503 (ΔtolC::kan), JW3234 (ΔacrF::kan), JW2661 (ΔemrB::kan), JW0863 (ΔmacB::kan). The deletion mutations in each of these strains were transferred to AB1157 using P1 phage transduction (see Table 1). The construction of the E. coli cell-based reporter strain (SOS-XXX) that was used for high throughput screening is described in detail in the supplementary information. […] Irgasan was a generous gift from Ciba Speciality Chemicals, Inc. (High Point, N.C.). Hoechst 33342 (H33342) was purchased from Molecular Probes (Eugene, Oreg.). […] Luria Broth (Miller) and agar were purchased as prepared dehydrated media from Becton Dickenson (Franklin Lakes, N.J.). The compound libraries used in high-throughput screens were purchased from Chembridge (San Diego, Calif.), ChemDiv (San Diego, Calif.), and TimTec (Newark, Del.). MBX2319 was synthesized by Microbiotix, Inc. • Antibacterial Activity Assays. The minimal inhibitory concentration (MIC) of antibacterial agents and biocides were determined using the microbroth dilution method essentially as described in the CLSI protocol M7-A7 (CLSI: Method for dilution antimicrobial susceptibility testing for bacteria that grow aerobically; Approved standard-document M7-A7. In Clinical and Laboratory Standards Institute document M7-A7, Clinical and Laboratory Standards Institute, Wayne, Pa., (2006)), with the following exceptions. LB media was used instead of MHB. […] The final concentration of DMSO in each assay was 2%. […] MIC assays were performed in triplicate and the geometric mean was calculated. Checkerboard MIC assays using an EPI and an antibacterial agent were performed essentially as described (Pillai, et al.: Antimicrobial Combinations. In Antibiotics in Laboratory Medicine, ed. by V. Lorian, pp. 365-440, Lippincott Williams & Wilkins, Philadelphia, Pa., (2005)), with the same modifications used for the MIC assays described above. • Time-Kill Assays. Killing curve assays were performed essentially as described (Pillai, et al.: Antimicrobial Combinations. In Antibiotics in Laboratory Medicine, ed. by V. Lorian, pp. 365-440, Lippincott Williams & Wilkins, Philadelphia, Pa., (2005)). Exponential bacterial cultures grown in LB were diluted to a cell density of ˜1×10^7 in LB followed by addition of CIP and/or an EPI. Viability was monitored over 2-4 hours by making serial dilutions in saline and spotting 5 μl of each dilution onto the surface of an LB agar plate in triplicate. Colonies were counted after the plates were incubated at 37° C. for 16-18 hr, colony forming units (CFU) per ml were calculated, and the average and standard deviation for the three replicates was determined. For treatments that decreased CFU/ml below the limit of detection for the spot plating method, the 100 μl samples were diluted into 5 ml LB top agar, were poured onto LB agar plates, and incubated for 18 hr at 37° C. To calculate the fraction of the control for each sample, the average CFU/ml values for treated samples were divided by those from the same sample at 0 h (time=0). Each experiment was repeated at least three times, and a representative experiment is shown. • H33342 Accumulation Assay. The rate of accumulation of the fluorescent dye Hoechst 33342 (H33342), which is a substrate of a wide variety of bacterial efflux pumps (van den Berg van Saparoea, et al., Biochemistry, vol. 44, pp. 16931-16938, (2005)), can be used to estimate the activity of the major efflux pumps in E. coli and many other bacterial species. The H33342 accumulation assay was used to evaluate the effect of EPIs on the activity of the AcrAB-TolC efflux pump in several bacterial species essentially as described (Coldham, et al., J Antimicrob Chemother, vol. 65, pp. 1655-1663, (2010)). […]

Row | SMILES | H33342 accumulation [1] | MIC (μg/ml) ± EPI: MBX2319 ([2]; + 25 μM MBX2319) | MIC (μg/ml) ± EPI: PAβN ([2]; + 25 μM PAβN) | MIC Ratio MBX2319 ([2]; MIC no cmpd/MIC + 25 μM MBX2319) | MIC Ratio PAβN ([2]; MIC no cmpd/MIC + 25 μM PAβN) | MIC ([2]; Pseudomonas aeruginosa, ATCC27853, no EPI, read-out: MIC (μg/ml) ± EPI: None)
1 | CC1(C)Cc2c(C#N)c(SCCc3ccccc3)nc(N3CCOCC3)c2CO1 [MBX2319] | weak activity | – | – | – | – | –
2 | CCN1CCN(C(=O)N[C@@H](C(=O)N[C@@H]2C(=O)N3[C@@H]2SC(C)(C)[C@@H]3C(=O)O)c2ccccc2)C(=O)C1=O [Piperacillin, piperacillin] | – | 19 µg/mL | 19 µg/mL | 0.84 | 0.8 | 16 µg/mL
